Patent US8445691B2, “Heterocyclic thiosubstituted alkanol derivatives” (Bayer CropScience AG, priority 2010, dated 2013)
“And” between values parts separate entries of the source, which are not always exact repeats. Identical values can stand only once.

Tested on: Sphaerotheca fuliginea
Assay: Sphaerotheca test (cucumber) / protective
Assay type: in vivo
Settings: 500 ppm active ingredient, protective spray on young cucumber plants, evaluation 7 days after inoculation; 0% = control, 100% = no infection
Experimental: Sphaerotheca Test (Cucumber)/Protective
(§1) • Solvent: 49 parts by weight of N,N-dimethylformamide • Emulsifier: 1 part by weight of alkylaryl polyglycol ether
To produce an appropriate active ingredient formulation, 1 part by weight of active ingredient is mixed with the specified amounts of solvent and emulsifier, and the concentrate is diluted with water to the desired concentration. To test for protective activity, young cucumber plants are sprayed with the formulation of active ingredient at the stated application rate. 1 day after the treatment, the plants are inoculated with a spore suspension of Sphaerotheca fuliginea. The plants are then placed in a greenhouse at 70% relative air humidity and a temperature of 23° C. Evaluation follows 7 days after the inoculation. 0% means an efficacy which corresponds to that of the control, whereas an efficacy of 100% means that no infection is observed.
In the case of `CC(C)(C)C(O)(CSc1ccc(I)cc1)c1cncs1` (stereo not drawn) [Compound 2], the efficacy is reported as 95%. Molecule `CC(C)C(O)(CSc1ccc(I)cc1)c1cncs1` (stereo not drawn) [Compound 6] has an efficacy of 80%. In the case of `CC(C)(C)C(O)(CSc1ccc(Cl)cc1Cl)c1cncs1` (stereo not drawn) [Compound 11], the efficacy is reported as 80%. Work on `CC1(C(O)(CSc2ccc(I)cc2)c2cncs2)CCCCC1` (stereo not drawn) [Compound 13] yielded an efficacy of 89%. For `CC(C)(C)C(O)(CSc1ccc(Cl)c(Cl)c1)c1cncs1` (stereo not drawn) [Compound 38], the efficacy was 80% and 90%.

Tested on: not listed separately
Assay: logP by reversed-phase HPLC (EEC Directive 79/831 Annex V.A8)
Assay type: physicochemical
Settings: method [a]: LC-MS, acidic range pH 2.7, 0.1% aqueous formic acid / acetonitrile, linear gradient 10% to 95% acetonitrile, C18 reversed phase
Experimental: The logP values were measured in accordance with EEC Directive 79/831 Annex V.A8 by HPLC (High Performance Liquid Chromatography) using reversed-phase columns (C 18) by the following methods:
[a] The LC-MS determination in the acidic range is effected at pH 2.7 with 0.1% aqueous formic acid and acetonitrile (contains 0.1% formic acid) as eluents; linear gradient from 10% acetonitrile to 95% acetonitrile.
With `CC(C)(C)C(O)(CSc1ccc(Cl)s1)c1cncs1` (stereo not drawn) [Compound 4] the logP was “logP 3.68^[a]; [M]^+ = 334”. With `CC(C)(C)C(O)(CSCc1ccc(Cl)cc1Cl)c1cncs1` (stereo not drawn) [Compound 10] the logP was “logP 4.29^[a]; [M]^+ = 375”. With `CC(C)(C)C(O)(CSc1ccc(Cl)cc1Cl)c1cncs1` (stereo not drawn) [Compound 11] the logP was “logP 3.96^[a]; [M]^+ = 361”. In the case of `Cc1ccc(SCC(O)(c2cncs2)C(C)(C)C)cc1` (stereo not drawn) [Compound 12], the logP is reported as “logP 3.63^[a]; [M]^+ = 307”. For `CC(C)Oc1ccc(SCC(O)(c2cncs2)C2(C)CCCCC2)cn1` (stereo not drawn) [Compound 16], the logP was “logP 4.70^[a]; [M]^+ = 393”. In the case of `CC(C)(C)C(O)(CSc1ccc(Cl)cc1)c1cncs1` (stereo not drawn) [Compound 17], the logP is reported as “log p 3.64^[a]”. For `COc1ccc(SCC(O)(c2cncs2)C(C)(C)C)cc1` (stereo not drawn) [Compound 18], the logP was “log p 3.16^[a]”. With `CC(C)(C)c1ccc(SCC(O)(c2cncs2)C(C)(C)C)cc1` (stereo not drawn) [Compound 19] the logP was “log p 3.7^[a]”. For `CC(C)(C)C(O)(CSc1cccc(Br)c1)c1cncs1` (stereo not drawn) [Compound 20], the logP was “log p 3.74^[a]”. In the case of `CC(C)(C)C(O)(CSc1ccccc1Br)c1cncs1` (stereo not drawn) [Compound 21], the logP is reported as “log p 3.5^[a]”. For `Cc1ccc([S+]([O-])CC(O)(c2cncs2)C(C)(C)C)c(C)c1` (stereo not drawn) [Compound 23], the logP was “log p 2.92^[a]”. With `CC(C)C(O)(CSc1nncn1-c1c(F)cccc1F)c1cncs1` (stereo not drawn) [Compound 24] the logP was “log p 1.8^[a]”. With `CC(C)C(O)(CSc1nncn1-c1ccccc1)c1cncs1` (stereo not drawn) [Compound 25] the logP was “log p 1.76^[a]”. For `CC(C)(C)C(O)(CSC1CCCCC1)c1cncs1` (stereo not drawn) [Compound 26], the logP was “log p 4.17^[a]”. With `CC(C)(C)C(O)(CSc1ccccc1Br)c1cnc(Sc2ccccc2Br)s1` (stereo not drawn) [Compound 27] the logP was “log p 5.78^[a]”. With `Cc1ccc(SCC(O)(c2cncs2)C(C)(C)C)c(C)c1` (stereo not drawn) [Compound 28] the logP was “log p 4.02^[a]”. For `CC(C)C(O)(CSc1nncn1C1CCCCC1)c1cncs1` (stereo not drawn) [Compound 31], the logP was “log p 2.04^[a]”. For `CC(C)(C)C(O)(CSc1ccc2ccccc2c1)c1cncs1` (stereo not drawn) [Compound 35], the logP was “log p 3.92^[a]”. In the case of `CC(C)(C)C(O)(CSc1cccc2ccccc12)c1cncs1` (stereo not drawn) [Compound 36], the logP is reported as “log p 3.87^[a]”. With `Cc1ccc(SCC(O)(c2cncs2)C(C)(C)C)cc1` (stereo not drawn) [Compound 37] the logP was “log p 3.63^[a]”. With `CC(C)(C)C(O)(CSc1ccc(Cl)c(Cl)c1)c1cncs1` (stereo not drawn) [Compound 38] the logP was “log p 4.05^[a]”. For `CC(C)(C)C(O)(CSc1cccc(Oc2ccccc2)c1)c1cncs1` (stereo not drawn) [Compound 39], the logP was “log p 4.33^[a]”. With `CC(C)(C)C(O)(CSc1ccc(C(=O)NC2CC2)cc1Cl)c1cncs1` (stereo not drawn) [Compound 40] the logP was “log p 2.54^[a]”. With `COC(=O)c1ccc(SCC(O)(c2cncs2)C(C)(C)C)cc1` (stereo not drawn) [Compound 41] the logP was “log p 3.01^[a]”. For `CC(=O)c1ccccc1SCC(O)(c1cncs1)C(C)(C)C` (stereo not drawn) [Compound 42], the logP was “log p 2.66^[a]”. For `CC(C)(C)C(O)(CSc1cc(C(F)(F)F)ccc1Cl)c1cncs1` (stereo not drawn) [Compound 43], the logP was “log p 4.02^[a]”. For `CC(C)(C)C(O)(CSc1ccc(-c2ccccc2)cc1)c1cncs1` (stereo not drawn) [Compound 44], the logP was “log p 4.39 ^[a]”. For `CCOC(=O)c1ccc(SCC(O)(c2cncs2)C(C)(C)C)c(C)c1` (stereo not drawn) [Compound 45], the logP was “log p 3.7 ^[a]”. In the case of `CC(Oc1ccc(SCC(O)(c2cncs2)C(C)(C)C)cc1)C(C)(C)C` (stereo not drawn) [Compound 46], the logP is reported as “log p 5.53^[a]”. For `CC(C)(C)C(O)(CSc1ccc(F)cc1F)c1cncs1` (stereo not drawn) [Compound 47], the logP was “log p 3.26^[a]”. With `CC(C)(C)C(=O)Nc1ccc(SCC(O)(c2cncs2)C(C)(C)C)cc1` (stereo not drawn) [Compound 48] the logP was “log p 3.14^[a]”. With `CC(=O)c1ccc(SCC(O)(c2cncs2)C(C)(C)C)c(Cl)c1` (stereo not drawn) [Compound 49] the logP was “log p 2.91^[a]”. In the case of `CC(C)(C)C(O)(CSc1ccc(F)c(F)c1)c1cncs1` (stereo not drawn) [Compound 50], the logP is reported as “log p 3.3^[a]”. For `CSc1ccc(SCC(O)(c2cncs2)C(C)(C)C)cc1` (stereo not drawn) [Compound 51], the logP was “log p 3.59^[a]”. For `CCOC(=O)c1ccc(SCC(O)(c2cncs2)C(C)(C)C)cc1` (stereo not drawn) [Compound 52], the logP was “log p 3.41^[a]”. In the case of `CC(C)(C)C(O)(CSc1ccc(C(=O)c2ccccc2)cc1)c1cncs1` (stereo not drawn) [Compound 53], the logP is reported as “log p 3.66^[a]”. In the case of `CC(=O)Nc1cccc(SCC(O)(c2cncs2)C(C)(C)C)c1` (stereo not drawn) [Compound 54], the logP is reported as “log p 2.15^[a]”. With `CCc1cccc(C)c1SCC(O)(c1cncs1)C(C)(C)C` (stereo not drawn) [Compound 55] the logP was “log p 4.41^[a]”. For `CCc1cccc(CC)c1SCC(O)(c1cncs1)C(C)(C)C` (stereo not drawn) [Compound 56], the logP was “log p 4.78^[a]”. With `CC(C)(C)C(O)(CSc1cc(C(F)(F)F)cc(C(F)(F)F)c1)c1cncs1` (stereo not drawn) [Compound 58] the logP was “log p 4.37^[a]”. In the case of `CC(C)(C)C(O)(CSc1cc(Cl)cc(Cl)c1)c1cncs1` (stereo not drawn) [Compound 59], the logP is reported as “log p 4.18^[a]”. For `CC(C)(C)C(O)(CSc1cccc(Cl)c1Cl)c1cncs1` (stereo not drawn) [Compound 60], the logP was “log p 3.76^[a]”. For `CC(C)(C)C(O)(CSc1cccc(C(F)(F)F)c1)c1cncs1` (stereo not drawn) [Compound 61], the logP was “log p 3.74^[a]”. In the case of `CC(C)(C)C(O)(CSc1cc(Cl)c(Cl)cc1Cl)c1cncs1` (stereo not drawn) [Compound 62], the logP is reported as “log p 4.41^[a]”. For `Cc1cccc(SCC(O)(c2cncs2)C(C)(C)C)c1` (stereo not drawn) [Compound 63], the logP was “log p 3.57^[a]”. With `Cc1ccccc1SCC(O)(c1cncs1)C(C)(C)C` (stereo not drawn) [Compound 64] the logP was “log p 3.52^[a]”. With `CC(C)(C)C(O)(CSc1ccc(F)cc1)c1cncs1` (stereo not drawn) [Compound 65] the logP was “log p 3.21^[a]”. With `CC(=O)Nc1ccc(SCC(O)(c2cncs2)C(C)(C)C)cc1` (stereo not drawn) [Compound 66] the logP was “log p 2.13^[a]”. In the case of `COC(=O)c1ccccc1SCC(O)(c1cncs1)C(C)(C)C` (stereo not drawn) [Compound 67], the logP is reported as “log p 2.95^[a]”. For `Cc1cc(C)cc(SCC(O)(c2cncs2)C(C)(C)C)c1` (stereo not drawn) [Compound 68], the logP was “log p 4.06^[a]”. In the case of `CCc1ccccc1SCC(O)(c1cncs1)C(C)(C)C` (stereo not drawn) [Compound 69], the logP is reported as “log p 3.9^[a]”. With `Cc1ccc(C)c(SCC(O)(c2cncs2)C(C)(C)C)c1` (stereo not drawn) [Compound 70] the logP was “log p 3.98^[a]”. With `CC(C)(C)C(O)(CSc1ccccc1Cl)c1cncs1` (stereo not drawn) [Compound 71] the logP was “log p 3.37^[a]”. In the case of `CC(C)(C)C(O)(CSc1cccc(Cl)c1)c1cncs1` (stereo not drawn) [Compound 72], the logP is reported as “log p 3.59^[a]”. In the case of `CC(C)(C)C(O)(CSc1ccccc1)c1cncs1` (stereo not drawn) [Compound 73], the logP is reported as “log p 3.8^[a]”. With `CC(C)(C)C(O)(CSc1cc(Cl)ccc1Cl)c1cncs1` (stereo not drawn) [Compound 74] the logP was “log p 3.83^[a]”.

Tested on: Alternaria solani
Assay: Alternaria test (tomato) / protective
Assay type: in vivo
Settings: 500 ppm active ingredient, protective spray on young tomato plants, evaluation 7 days after inoculation; 0% = control, 100% = no infection
Experimental: Alternaria Test (Tomato)/Protective
as §1
To produce an appropriate active ingredient formulation, 1 part by weight of active ingredient is mixed with the specified amounts of solvent and emulsifier, and the concentrate is diluted with water to the desired concentration. To test for protective activity, young tomato plants are sprayed with the active ingredient formulation at the stated application rate. One day after the treatment, the plants are inoculated with a spore suspension of Alternaria solani and are then left to stand at 100% relative humidity and 22° C. for 24 h. Subsequently, the plants are left to stand at 96% relative air humidity and a temperature of 20° C. Evaluation follows 7 days after the […]. 0% means an efficacy which corresponds to that of the control, whereas an efficacy of 100% means that no infection is observed.
Molecule `CC(C)(C)C(O)(CSc1ccc(I)cc1)c1cncs1` (stereo not drawn) [Compound 2] has an efficacy of 86%. With `CC(C)(C)C(O)(CSc1ccc(Cl)cc1Cl)c1cncs1` (stereo not drawn) [Compound 11] the efficacy was 99%. `CC1(C(O)(CSc2ccc(I)cc2)c2cncs2)CCCCC1` (stereo not drawn) [Compound 13] showed an efficacy of 99%. For `CC(C)Oc1ccc(SCC(O)(c2cncs2)C2(C)CCCCC2)cn1` (stereo not drawn) [Compound 16], the efficacy was 94%. `CC(C)(C)C(O)(CSc1ccc(Cl)cc1)Cc1cncs1` (stereo not drawn) [Compound 34] showed an efficacy of 99%. Molecule `CC(C)(C)C(O)(CSc1ccc(Cl)c(Cl)c1)c1cncs1` (stereo not drawn) [Compound 38] has an efficacy of 75%. For `CC(C)(C)C(O)(CSc1ccc(-c2ccccc2)cc1)c1cncs1` (stereo not drawn) [Compound 44], the efficacy was 100%. Molecule `CC(C)(C)C(O)(CSc1cccc(Cl)c1Cl)c1cncs1` (stereo not drawn) [Compound 60] has an efficacy of 94%.
